Read-outs that look alike come from different tables or passages of the source. A value given as a limit tells only on which side of the number the result lay.

The source of these data is patent US11655235B2, “Pyrrolidine and piperidine compounds” (YUHAN CORPORATION, priority 2019, dated 2023).

What all share (type): biochemical
For one assay, the target named is T1, recombinant human DPP7 (Homo sapiens, UniProt Q9UHL4).
T1 construct: purchased R&D Systems
Kind of assay: DPP7 inhibition, fluorogenic substrate Lys-Pro-AMC. The procedure: The compounds according to the present technology were evaluated in terms of the inhibitory effect on the activity of dipeptidyl peptidases including FAP by using a substrate producing fluorescent substances upon enzymatic decomposition. The test was conducted at 25° C. to get a final reaction volume of 100 μL in a 96 black well plate. […] Briefly, the test compounds were dissolved in dimethyl sulfoxide (DMSO) at a concentration of 20 mM and then subjected to serial dilution, thereby creating an 8 point curve. As for the control group, a 6 point curve created by serial dilution of Talabostat in the same buffer solution was used. Fluorescence intensity was measured using a microplate reader (Flexstation3, Molecular Devices) under the wavelength condition exciting at 380 nm and reading the emission at 460 nm. The inhibitory effect of the test compounds was measured as a decrease (%) in the signal rate as compared to the control group without any inhibitor. Data was fixed to a logistic model with four variables and IC50 value was calculated using GraphPad Prism program. As for recombinant human DPP4 (R&D Systems), 25 mM tris (pH 8.0) buffer as a buffer solution and H-Gly-Pro-AMC (Bachem) as a substrate were used. As for recombinant human DPP7 (R&D Systems), 25 mM MES (pH 6.0) buffer as a buffer solution and Lys-Pro-AMC (Bachem) as a substrate were used. As for recombinant human DPP8 (PBS Bioscience), as a buffer solution, a 10 mM tris (pH 7.4) buffer comprising 10 mM of magnesium chloride and 0.05% of Tween 20, and Z-Ala-Pro-AMC (BPS Bioscience) as a substrate were used. As for recombinant human DPP9 (R&D Systems), a 25 mM tris (pH 8.0) buffer as a buffer solution and H-Gly-Pro-AMC (Bachem) as a substrate were used. As for recombinant human PREP (R&D System), as a buffer solution, a 25 mM tris (pH 7.5) buffer comprising 250 mM sodium chloride and 2.5 mM DTT (Dithiolthreitol), and Z-Gly-Pro-AMC (Bachem) as a substrate were used. The evaluation was made by using 10 ng of DPP4, PDD7, and PREP, 20 ng of DPP8, and 50 ng of DPP9 based on the final reaction. In the evaluation of DPP4, the test compounds were subjected to serial dilution in a buffer under the condition containing up to 0.1% of DMSO. In the evaluation of DPP7, DPP8, DPP9, and PREP, the test compounds were subjected to serial dilution in each buffer under the condition containing up to 0.5% of DMSO.

A further assay addresses DPP4 (Homo sapiens, UniProt P27487). Kind of assay: DPP4 inhibition, fluorogenic substrate H-Gly-Pro-AMC. To be noted: for inhibition at 1 µM: read-out: hDPP4 inhibition % at 1 μM. Also noted: purchased R&D Systems.
A further assay concerns the target T2, Recombinant human FAP (Homo sapiens, UniProt Q12884).
T2 construct: purchased R&D systems
T2 sequence (Q12884 1-760): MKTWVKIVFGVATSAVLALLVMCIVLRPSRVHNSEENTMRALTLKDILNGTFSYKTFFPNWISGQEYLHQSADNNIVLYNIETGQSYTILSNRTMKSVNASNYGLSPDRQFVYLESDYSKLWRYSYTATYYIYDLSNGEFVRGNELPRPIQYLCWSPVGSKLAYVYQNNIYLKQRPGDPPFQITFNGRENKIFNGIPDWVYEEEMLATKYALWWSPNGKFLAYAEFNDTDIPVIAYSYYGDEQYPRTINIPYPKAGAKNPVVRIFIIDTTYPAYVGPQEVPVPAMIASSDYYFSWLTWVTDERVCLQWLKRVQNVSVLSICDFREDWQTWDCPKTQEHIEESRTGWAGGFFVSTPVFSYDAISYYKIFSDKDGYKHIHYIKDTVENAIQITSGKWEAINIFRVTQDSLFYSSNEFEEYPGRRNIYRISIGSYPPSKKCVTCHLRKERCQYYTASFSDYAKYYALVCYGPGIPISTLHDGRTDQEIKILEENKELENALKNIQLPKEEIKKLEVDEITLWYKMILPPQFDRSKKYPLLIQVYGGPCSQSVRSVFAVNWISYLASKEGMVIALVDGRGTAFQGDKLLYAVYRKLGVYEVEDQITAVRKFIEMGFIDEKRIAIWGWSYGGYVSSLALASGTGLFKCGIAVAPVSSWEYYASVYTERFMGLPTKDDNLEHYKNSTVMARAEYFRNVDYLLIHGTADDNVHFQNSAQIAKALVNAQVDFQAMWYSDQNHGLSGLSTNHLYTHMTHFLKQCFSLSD
Nature of the assay: FAP inhibition, fluorogenic substrate Z-Gly-Pro-AMC. In short, it runs like this: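 Recombinant human FAP, 10 ng per reaction, in 50 mM Tris pH 7.5 with 1 M NaCl and 1 mg/ml BSA at 25° C; substrate Z-Gly-Pro-AMC, ≤0.1% DMSO. AMC fluorescence read at ex 380/em 460 nm; % signal-rate decrease vs no-inhibitor control, 8-point curves fitted to a four-parameter logistic for IC50.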

[1] abbreviates: recombinant human FAP, substrate Z-Gly-Pro-AMC.
Setting [2] is: 25° C., H-Gly-Pro-AMC substrate.
Setting [3] is: 25° C., Z-Gly-Pro-AMC substrate.

DPP4, sequence (P27487 whole entry): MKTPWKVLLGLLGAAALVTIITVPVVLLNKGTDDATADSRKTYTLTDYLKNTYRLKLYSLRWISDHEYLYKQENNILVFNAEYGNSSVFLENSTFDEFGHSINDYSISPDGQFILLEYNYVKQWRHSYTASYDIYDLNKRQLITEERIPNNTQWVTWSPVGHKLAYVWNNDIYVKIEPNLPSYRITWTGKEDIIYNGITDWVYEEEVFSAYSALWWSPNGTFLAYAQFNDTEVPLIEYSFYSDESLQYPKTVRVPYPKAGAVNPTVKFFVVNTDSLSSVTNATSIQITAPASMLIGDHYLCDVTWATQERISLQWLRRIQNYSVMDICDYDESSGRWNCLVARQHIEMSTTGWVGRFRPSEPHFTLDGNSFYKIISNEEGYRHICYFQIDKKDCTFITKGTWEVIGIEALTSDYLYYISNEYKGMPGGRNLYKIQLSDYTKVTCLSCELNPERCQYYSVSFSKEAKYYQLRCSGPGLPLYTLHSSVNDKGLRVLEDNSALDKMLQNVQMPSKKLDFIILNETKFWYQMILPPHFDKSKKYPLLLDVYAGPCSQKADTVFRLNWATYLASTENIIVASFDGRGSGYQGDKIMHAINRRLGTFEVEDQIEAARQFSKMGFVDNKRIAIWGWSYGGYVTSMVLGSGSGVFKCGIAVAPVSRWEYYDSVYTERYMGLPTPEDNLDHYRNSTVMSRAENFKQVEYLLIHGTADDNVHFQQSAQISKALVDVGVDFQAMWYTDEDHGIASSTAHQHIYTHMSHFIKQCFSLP

In general, IC50 refers to the midpoint of a concentration-inhibition curve. Consider `CN(c1cc2ccccc2cn1)C1CCN(CC(=O)N2CCC[C@H]2C#N)CC1` [Example 321, (2S)-1-[2-[4-[3-isoquinolyl(methyl)amino]-1-piperidyl]acetyl]pyrrolidine-2-carbonitrile], for which the figures for the IC50 at recombinant human DPP7 (recombinant human DPP7), at DPP4 (recombinant human DPP4) and at Recombinant human FAP (setting [1]) were 10500 nM, above 10000 nM and 8.8 nM, respectively.

For `N#C[C@@H]1C[C@H](F)CN1C(=O)CN1CC[C@H](Nc2ccc3cccnc3c2)C1` [Example 251, (2S,4S)-4-fluoro-1-[2-[(3S)-3-(7-quinolylamino)pyrrolidin-1-yl]acetyl]pyrrolidine-2-carbonitrile], the IC50 on recombinant human DPP7 (recombinant human DPP7) amounted to 199 nM; on DPP4 (recombinant human DPP4), 2310 nM; on Recombinant human FAP (setting [1]), 3.1 nM.

Regarding `COc1ccc2nccc(OC3CCN(CC(=O)N4C[C@@H](F)C[C@H]4C#N)CC3)c2c1` [Example 128, (2S,4S)-4-fluoro-1-(2-(4-((6-methoxyquinolin-4-yl)oxy)piperidin-1-yl)acetyl)pyrrolidine-2-carbonitrile], the results for the IC50 on recombinant human DPP7, at DPP4 (setting [2]) and at Recombinant human FAP (setting [3]) were 5900 nM, above 10000 nM and 0.78 nM, respectively.

With `N#C[C@@H]1CCCN1C(=O)CN1CC[C@H](Oc2cccc3ncccc23)C1` [Example 66, (S)-1-(2-((S)-3-(quinolin-5-yloxy)pyrrolidin-1-yl)acetyl)pyrrolidine-2-carbonitrile], the figures for the half-inhibitory concentration (IC50) on recombinant human DPP7, at DPP4 (setting [2]) and on Recombinant human FAP (setting [3]) were 6390 nM, above 1000 nM and 5.48 nM, respectively.

For the compound `N#C[C@@H]1CCCN1C(=O)CN1CC[C@H](Oc2ccnc3ccccc23)C1` [Example 61, (S)-1-(2-((S)-3-(quinolin-4-yloxy)pyrrolidin-1-yl)acetyl)pyrrolidine-2-carbonitrile], the IC50 on recombinant human DPP7 was 1150 nM; on DPP4 (setting [2]), above 1000 nM; at Recombinant human FAP (setting [3]), 21.5 nM.

Broadly, the inhibition is the share of the control response that was lost under treatment. For `COc1ccc2occ(C(=O)N[C@H]3CCN(CC(=O)N4CCC[C@H]4C#N)C3)c2c1` [Example 46, N—((S)-1-(2-((S)-2-cyanopyrrolidin-1-yl)-2-oxoethyl)pyrrolidin-3-yl)-5-methoxybenzofuran-3-carboxamide], the IC50 is 2200 nM on recombinant human DPP7 and 7.7 nM at Recombinant human FAP (setting [3]). Further, the inhibition at 1 µM on DPP4 is 1.4%.

Take `N#C[C@@H]1CCCN1C(=O)CN1CC[C@H](Nc2cncc3ccoc23)C1` [Example 23, (S)-1-(2-((S)-3-(furo[3,2-c]pyridin-7-ylamino)pyrrolidin-1-yl)acetyl)pyrrolidine-2-carbonitrile]: the figures for the IC50 at recombinant human DPP7, against DPP4 (setting [2]) and at Recombinant human FAP (setting [3]) were 951 nM, above 1000 nM and 3.08 nM, respectively.

Regarding `COc1ccc2cc(N(C)[C@H]3CCN(CC(=O)N4CCC[C@H]4C#N)C3)cnc2c1` [Example 153, (S)-1-(2-((S)-3-((7-methoxyquinolin-3-yl)(methyl)amino)pyrrolidin-1-yl)acetyl)pyrrolidine-2-carbonitrile], the figures for the IC50 on recombinant human DPP7 and at Recombinant human FAP (setting [3]) were 3120 nM and 3.4 nM, respectively.

Turning to `N#C[C@@H]1CCCN1C(=O)CN1CC[C@H](Nc2ccnc3ccccc23)C1` [Example 5, (S)-1-(2-((S)-3-(quinolin-4-ylamino)pyrrolidin-1-yl)acetyl)pyrrolidine-2-carbonitrile], the IC50 on recombinant human DPP7 was 294 nM; on DPP4 (setting [2]), above 1000 nM; at Recombinant human FAP (setting [3]), 2.6 nM.

`N#C[C@@H]1C[C@H](F)CN1C(=O)CN1CCC(Oc2ccc(Cl)c3ncccc23)CC1` [Example 418, (2S,4S)-1-[2-[4-[(8-chloro-5-quinolyl)oxy]-1-piperidyl]acetyl]-4-fluoro-pyrrolidine-2-carbonitrile]: the figures for the IC50 at DPP4 (recombinant human DPP4) and on Recombinant human FAP (setting [1]) were 4670 nM and 3.7 nM, respectively.

For `CN(c1ccnc2ccccc12)C1CCN(CC(=O)N2CCC[C@H]2C#N)CC1` [Example 308, (2S)-1-[2-[4-[methyl(4-quinolyl)amino]-1-piperidyl]acetyl]pyrrolidine-2-carbonitrile], the IC50 on DPP4 (recombinant human DPP4) was above 10000 nM; on Recombinant human FAP (setting [1]) it was 96.8 nM.

Regarding `N#C[C@@H]1CCCN1C(=O)CN1CC[C@H](Oc2cccc3c(Cl)ncnc23)C1` [Example 73, (S)-1-(2-((S)-3-((4-chloroquinazolin-8-yl)oxy)pyrrolidin-1-yl)acetyl)pyrrolidine-2-carbonitrile], the values for the inhibition at 1 µM at DPP4 and at Recombinant human FAP (read-out: hFAP inhibition % at 1 μM) were 1.2% and 97.1%, respectively.

For `N#C[C@@H]1CCCN1C(=O)CN1CCC(Oc2ccc3ncccc3c2)CC1` [Example 120, (S)-1-(2-(4-(quinolin-6-yloxy)piperidin-1-yl)acetyl)pyrrolidine-2-carbonitrile], the “hDPP4 inhibition % at 1 μM” value at DPP4 is reported as “No inhibition**”. Also, at Recombinant human FAP (setting [3]), the IC50 was 11.8 nM.

Consider `N#C[C@@H]1CCCN1C(=O)CN1CC[C@H](NC(=O)c2cc3ccccc3o2)C1` [Example 40, N—((S)-1-(2-((S)-2-cyanopyrrolidin-1-yl)-2-oxoethyl)pyrrolidin-3-yl)benzofuran-2-carboxamide], for which the inhibition at 1 µM at DPP4 was determined as 3.2%. The IC50 on Recombinant human FAP (setting [3]) amounted to 38.3 nM.

For `N#C[C@@H]1CCCN1C(=O)CN1CCC(Oc2cnc3ccccc3c2)CC1` [Example 117, (S)-1-(2-(4-(quinolin-3-yloxy)piperidin-1-yl)acetyl)pyrrolidine-2-carbonitrile], the “hDPP4 inhibition % at 1 μM” value at DPP4 is recorded as “No inhibition**”. For the same compound, the IC50 on Recombinant human FAP (setting [3]) is 22.9 nM.

As for `N#C[C@@H]1CCCN1C(=O)CN1CCC(Nc2cccc3ncccc23)CC1` [Example 110, (S)-1-(2-(4-(quinolin-5-ylamino)piperidin-1-yl)acetyl)pyrrolidine-2-carbonitrile], the results for the IC50 at recombinant human DPP7, on DPP4 (setting [2]) and on Recombinant human FAP (setting [3]) were 500 nM, above 1000 nM and 2.2 nM, respectively.

Regarding `N#C[C@@H]1C[C@H](F)CN1C(=O)CN1CCC(Oc2cccc3ncc(F)cc23)CC1` [Example 416, (2S,4S)-4-fluoro-1-[2-[4-[(3-fluoro-5-quinolyl)oxy]-1-piperidyl]acetyl]pyrrolidine-2-carbonitrile], the IC50 is 6840 nM on DPP4 (recombinant human DPP4) and 2.3 nM at Recombinant human FAP (setting [1]).

For the compound `N#C[C@@H]1CCCN1C(=O)CN1CC[C@@H](C(=O)Nc2cnc3ccccc3c2)C1` [Example 1, (R)-1-(2-((S)-2-cyanopyrrolidin-1-yl)-2-oxoethyl)-N-(quinolin-3-yl)pyrrolidine-3-carboxamide], the inhibition at 1 µM on DPP4 turned out to be 4.4%. Further, the IC50 at Recombinant human FAP (setting [3]) turned out to be 163 nM.

Consider `N#C[C@@H]1CCCN1C(=O)CN1CC[C@H](NC(=O)c2cccc3cccnc23)C1` [Example 34, N—((S)-1-(2-((S)-2-cyanopyrrolidin-1-yl)-2-oxoethyl)pyrrolidin-3-yl)quinoline-8-carboxamide], for which, at DPP4, the “hDPP4 inhibition % at 1 μM” value is listed as “No inhibition**”. Also, the IC50 at Recombinant human FAP (setting [3]) is 191 nM.
